Assay results taken from ChEMBL document CHEMBL1141777, “Norlanostane triterpenoidal saponins from the marine sponge melophlussarassinorum” (2005).
Calls of active or inactive are those of the source. The rule behind the calls is not given here.

Legend:
Bacillus subtilis [1] = assay: Antimicrobial activity against Bacillus subtilis DSM 2109; format: functional, organism-based
Saccharomyces cerevisiae [2] = assay: Antimicrobial activity against Saccharomyces cerevisiae; format: functional, organism-based
Escherichia coli = assay: Antimicrobial activity against Escherichia coli DSM 10290; format: functional, organism-based
Saccharomyces cerevisiae [3] = assay: Antimicrobial activity against Saccharomyces cerevisiae at 10 ug after 24 hrs by agar diffusion assay; format: functional; conditions: read-out: IZ
Bacillus subtilis [4] = assay: Antimicrobial activity against Bacillus subtilis DSM 2109 at 10 ug after 24 hrs by agar diffusion assay; format: functional; conditions: DSM 2109, 24 h, read-out: IZ

| SMILES | Activity (Bacillus subtilis [1]) | Activity (Saccharomyces cerevisiae [2]) | Activity (Escherichia coli) | zone of inhibition at 10 µg/disc (Saccharomyces cerevisiae [3]) [mm] | zone of inhibition at 10 µg/disc (Bacillus subtilis [4]) [mm] |
| --- | --- | --- | --- | --- | --- |
| CC(=O)N[C@H]1[C@H](O[C@@H]2CO[C@@H](O[C@H]3CC[C@]4(C)C5=C(CC[C@H]4C3(C)C)[C@@H]3CC[C@H]([C@H](C)CC(=O)C=C(C)C)[C@@]3(C)CC5)[C@H](O[C@@H]3O[C@H](CO[C@@H]4O[C@H](CO)[C@@H](O)[C@H](O)[C@H]4O[C@@H]4O[C@H](CO)[C@@H](O)[C@H](O)[C@H]4O)[C@@H](O)[C@H](O)[C@H]3NC(C)=O)[C@H]2O)O[C@H](CO)[C@H](O)[C@@H]1O [SARASINOSIDE A1] | inactive | Active | inactive | 10 | – |
| CC(=O)N[C@H]1[C@H](O[C@@H]2CO[C@@H](O[C@H]3CC[C@]4(C)C5=C(CC[C@H]4C3(C)C)[C@@H]3CC[C@H]([C@H](C)CC(=O)CC(C)(C)O)[C@@]3(C)CC5)[C@H](O[C@@H]3O[C@H](CO[C@@H]4O[C@H](CO)[C@@H](O)[C@H](O)[C@H]4O[C@@H]4O[C@H](CO)[C@@H](O)[C@H](O)[C@H]4O)[C@@H](O)[C@H](O)[C@H]3NC(C)=O)[C@H]2O)O[C@H](CO)[C@H](O)[C@@H]1O [SARASINOSIDE J] | – | Active | – | 13 | 9 |
